Measured values published in patent US20070020194A1, “Nasally administered appetite suppressant” (priority 2005, published 2007).
“And” between values parts separate entries of the source, which are not always exact repeats. Identical values can stand only once.

What was measured:
[1] = cited from earlier work
[2] = Food intake study, intranasal lidocaine vs saline before a test meal; assay type: in vivo, human
Procedure: Three males and one female between 23 and 60 years of age with BMI's less than 25 kg/m2 participated in a study of food intake. The subjects presented to the food intake laboratory at noon after an overnight fast except for water from 9 pm the prior night on two occasions a week apart. They had 10 mg (0.5 cc) of lidocaine or 0.5 cc normal saline administered in each nostril 20 minutes before presentation of a meal consisting of fried chicken pieces and water. They were allowed to eat and drink as much or as little as they wished over a 20-minute period, and there were more chicken pieces than they could reasonably be expected to eat at one sitting. The order of the lidocaine and saline was balanced and the study was performed in a double-blind fashion.
The four subjects consumed 15%, 11%, 27% and 33% less on the lidocaine week compared to the placebo week. […] Sibutramine, an obesity drug, gives an 8% weight loss at 6 months and causes a 12% decrease in food intake.

[3] = applied topically; cited from earlier work
[4] = 70 kg adult; cited from earlier work

Row | Compound | weight loss ([1]; at 6 months) | decrease in food intake ([1]; in vivo) | less food consumed on the lidocaine week compared to the placebo week (individual subjects) ([2]; 10 mg (0.5 cc) lidocaine in each nostril 20 minutes before meal, 20-minute meal of fried chicken pieces, four subjects, BMI less than 25 kg/m2) | overall reduction in food intake ([2]; 10 mg lidocaine per nostril vs saline, four subjects, p<0.02) | weight loss that might result if the food intake reduction is sustained ([2]; extrapolated from pilot study by comparison with sibutramine) | duration of anesthesia [3] | time to peak anesthesia [3] | maximum safe dosage for topical anesthetic [4]
1 | CC(C)CC(N(C)C)C1(c2ccc(Cl)cc2)CCC1 (centres unmarked) [Sibutramine] | 8% | 12% | – | – | – | – | – | –
2 | CCN(CC)CC(=O)Nc1c(C)cccc1C [lidocaine] | – | – | 15% and 11% and 27% and 33% | 21.5%+10.2% | ≤ 14% | 30 to 45 min | 2 to 5 min | 500 mg
